These results are taken from patent US20130078268A1, “VACCINE COMPOSITIONS AND METHODS OF USE THEREOF” (priority 2010, published 2013).

Where no end group is shown, it is not given here. [ ]: non-standard residue; d: D form. pGlu = O=C1CC[C@@H](C(=O)O)N1

For the test, the system named is peptide of SEQ ID NO: 1. In words: Titer of antibody to the peptide of SEQ ID NO: 1 by peptide-based ELISA in serum of immunised mice. The test is classed as in vivo. The conditions noted are these: male C57B1 mice; three subcutaneous injections of 100 μg peptide + 100 μg calcium phosphate nanoparticles at 3-week intervals; two weeks after the last injection. As for the experimental part: Four male mice (8-week-old, C57B1) were given, three subcutaneous injections of vaccine composition comprising 100 μg of the peptide SEQ ID NO: 1 and 100 μg of calcium phosphate nanoparticles at 3-week intervals. As controls, an additional four mice received the vehicle. Two weeks after the last injection, the titer of antibody to the peptide of SEQ ID NO: 1 was assessed by the peptide-based enzyme-linked immunosorbent assay (ELISA). Samples were run in triplicate on ELISA plates coated with the peptide of the SEQ ID NO: 1, which was used as the immunogen. The peptide was bound in solid phase on high binding 96 well plates. Serum was diluted 1:500 and then serially diluted to a final dilution of 1:64,000. Detection of the antibody was obtained using an HRP conjugated secondary antibody (1:5,000) and TMB micro well peroxidase substrate.
Four male mice (8-week-old, C57B1) were given three intraperitoneal injections of vaccine composition of example 3 at 3-week intervals. As controls, an additional four mice received the vehicle. Two weeks after the last injection, the titer of antibody to the peptide of SEQ ID NO: 1 was assessed by the peptide-based enzyme-linked immunosorbent assay (ELISA) as described in the example 4. […] Thus, the administering vaccine compositions of the invention elicited protective immunity in animals against endogenous peptide of SEQ ID NO: 1.
On the technique in general: An ELISA detects its analyte on a solid surface through an enzyme-linked reagent.

For the substance “pGlu-Pro-Pro-Gly-Gly-Ser-Lys-Val-Ile-Leu-Phe ([pGlu]PPGGSKVILF; listed as Homo sapiens) [peptide SEQ ID NO: 1]”, the “geometric mean titer of anti-SEQ ID NO: 1 antibodies in serum” value is “about 70,000”.
